For assay [1], the system named is SARS-CoV-2. Kind of assay: (§1) Functional immunofluorescence assay to measure dose dependent changes in antiviral-drug inhibitory efficacy against hCoV-19/USA-WA1/2020 in HeLa-ACE2 cells which are seeded prior to drug treatment, then infected with hCoV-19/USA-WA1/2020. Cells are fixed with 10 % formaldehyde, washed with PBS, permeabilized with permeabilization buffer, then washed with wash buffer. The cells are incubated with nucleoprotein primary antibody IC7C7. Following primary staining, cells are washed with wash buffer and incubated in a solution of with Alexa fluor 488 and DAPI. Infected and uninfected cells are visualized and analyzed by Gen5 software. The assay has been performed by Icahn School of Medicine at Mount Sinai. Type of assay: organism-based, Homo sapiens.

For assay [2], the system named is SARS-CoV-2. The assay is described as §1, with “iPSC-Pneumocyte” for “HeLa-ACE2”, “to” for “to drug”. It counts as organism-based, Homo sapiens.
[3] abbreviates: Severe acute respiratory syndrome coronavirus 2, HeLa-ACE2.
Where [4] appears, read: Severe acute respiratory syndrome coronavirus 2, Pneumocyte.

pEC50: −log10 of the molar value. Values joined by “and” are separate entries in the source; they are usually repeats but may differ in a detail not shown here. Identical values can stand only once.

Take `CNC(=O)c1cc2c(N[C@@H](c3ccc4c(c3)OCCO4)C(C)C)ncnc2[nH]1`: the pEC50 in the assay with SARS-CoV-2 [1] (setting [3]) and with SARS-CoV-2 [2] (setting [4]) was less than 4.30 in each case. The EC90 was more than 50 µM in the assay with SARS-CoV-2 [1] (Severe acute respiratory syndrome coronavirus 2, HeLa-ACE2, Baseline response 0 %, Hill slope -1.825, Maximum measured 114.293 %, Maximum response 100 %, Minimum measured 64.264 %, R squared 0.688) and more than 50 µM in the assay with SARS-CoV-2 [2] (Severe acute respiratory syndrome coronavirus 2, Pneumocyte, Maximum measured 153.61 %, Minimum measured 91.144 %).

Take `CC(C)[C@H](Nc1ncnc2[nH]c(-c3cnn(CC(N)=O)c3)cc12)c1ccc2c(c1)S(=O)(=O)CCC2`: the pEC50 with SARS-CoV-2 [1] (setting [3]) is less than 4.70; with SARS-CoV-2 [2] (setting [4]) it was less than 4.30. Moreover, the EC90 in the assay on SARS-CoV-2 [1] (Severe acute respiratory syndrome coronavirus 2, HeLa-ACE2, Baseline response 0 %, Hill slope 1.066, Maximum measured 108.399 %, Maximum response 100 %, Minimum measured 92.21 %, R squared 0.046) was more than 20 µM; with SARS-CoV-2 [2] (Severe acute respiratory syndrome coronavirus 2, Pneumocyte, Baseline response 0 %, Hill slope -0.706, Maximum measured 119.318 %, Maximum response 100 %, Minimum measured 70.174 %, R squared 0.133), more than 50 µM.

Regarding `CCNC(=O)c1cc2c(N[C@@H](c3ccc4c(c3)OCCO4)C(C)C)ncnc2[nH]1`, the pEC50 in the assay on SARS-CoV-2 [1] (setting [3]) was less than 4.70; in the assay with SARS-CoV-2 [2] (setting [4]), 4.39. Further, the EC90 was more than 20 µM in the assay on SARS-CoV-2 [1] (Severe acute respiratory syndrome coronavirus 2, HeLa-ACE2, Baseline response 0 %, Hill slope -1.909, Maximum measured 113.12 %, Maximum response 100 %, Minimum measured 80.543 %, R squared 0.285); more than 20 µM with SARS-CoV-2 [1] (Severe acute respiratory syndrome coronavirus 2, HeLa-ACE2, Maximum measured 94.861 %, Minimum measured 54.623 %); more than 20 µM in the assay with SARS-CoV-2 [1] (Severe acute respiratory syndrome coronavirus 2, HeLa-ACE2, Maximum measured 122.873 %, Minimum measured 70.184 %); more than 50 µM with SARS-CoV-2 [2] (Severe acute respiratory syndrome coronavirus 2, Pneumocyte, Baseline response 0 %, Hill slope -8.576, Maximum measured 136.848 %, Maximum response 100 %, Minimum measured 15.577 %, R squared 0.308).

As for `CNCc1cc(-c2cc3c(N[C@@H](c4ccc5c(c4)S(=O)(=O)NCC5)C(C)C)ncnc3[nH]2)co1`, the negative logarithm of the EC50 (pEC50) was less than 4.70 with SARS-CoV-2 [1] (setting [3]) and 4.51 in the assay on SARS-CoV-2 [2] (setting [4]). In addition, the EC90 with SARS-CoV-2 [1] (Severe acute respiratory syndrome coronavirus 2, HeLa-ACE2, Baseline response 0 %, Hill slope -0.236, Maximum measured 99.818 %, Maximum response 100 %, Minimum measured 81.688 %, R squared 0.12) was more than 20 µM; in the assay on SARS-CoV-2 [2] (Severe acute respiratory syndrome coronavirus 2, Pneumocyte, Baseline response 0 %, Hill slope -1.273, Maximum measured 102.14 %, Maximum response 100 %, Minimum measured 30.967 %, R squared 0.783), more than 50 µM.

Take `CC(C)[C@@H](Nc1ncnc2[nH]ccc12)c1ccc2c(c1)NC(=O)CO2`: the pEC50 in the assay on SARS-CoV-2 [1] (setting [3]) and in the assay with SARS-CoV-2 [2] (setting [4]) was less than 4.30 in each case. The EC90 in the assay on SARS-CoV-2 [1] (Severe acute respiratory syndrome coronavirus 2, HeLa-ACE2, Baseline response 0 %, Hill slope -2.239, Maximum measured 123.573 %, Maximum response 100 %, Minimum measured 69.199 %, R squared 0.469) is more than 50 µM; in the assay on SARS-CoV-2 [2] (Severe acute respiratory syndrome coronavirus 2, Pneumocyte, Maximum measured 145.289 %, Minimum measured 92.172 %), more than 50 µM.

For the compound `CC(C)[C@@H](Nc1ncnc2[nH]c(-c3cnn(C)c3C#N)cc12)c1ccc2c(c1)OCCO2`, the 90% effect concentration (EC90) with SARS-CoV-2 [1] (Baseline response 0 %, EC90 CI (lower) 0.491 uM, EC90 CI (upper) 1.004 uM, Hill slope -2.446, Maximum measured 109.522 %, Maximum response 100 %, Minimum measured 0 %, R squared 0.979) is 4.23 µM; in the assay on SARS-CoV-2 [1] (Severe acute respiratory syndrome coronavirus 2, HeLa-ACE2, Baseline response 0 %, EC90 CI (lower) 0.194 uM, EC90 CI (upper) 2.46 uM, Hill slope -2.403, Maximum measured 109.522 %, Maximum response 100 %, Minimum measured 3.811 %, R squared 0.7), 4.31 µM; in the assay on SARS-CoV-2 [2] (Severe acute respiratory syndrome coronavirus 2, Pneumocyte, Baseline response 0 %, Hill slope -15.978, Maximum measured 108.15 %, Maximum response 100 %, Minimum measured 1.229 %, R squared 0.666) it was 16.2 µM; in the assay with SARS-CoV-2 [2] (Severe acute respiratory syndrome coronavirus 2, Pneumocyte, Baseline response 0 %, EC90 CI (lower) 0 uM, EC90 CI (upper) 0 uM, Hill slope -11.115, Maximum measured 116.315 %, Maximum response 100 %, Minimum measured 8.563 %, R squared 0.796) it was 6.57 µM. The pEC50 was 5.76 in the assay with SARS-CoV-2 [1] (setting [3]); 5.76 in the assay with SARS-CoV-2 [1] (hela-ace2); 4.85 and 5.27 with SARS-CoV-2 [2] (pneumocyte).

Regarding `Cc1ncc(-c2cc3c(N[C@@H](c4ccc5c(c4)OCCO5)C(C)C)ncnc3[nH]2)cn1`, the results for the pEC50 with SARS-CoV-2 [1] (setting [3]), in the assay on SARS-CoV-2 [1] (hela-ace2) and in the assay on SARS-CoV-2 [2] (setting [4]) were 5.35, 5.35 and 4.80, respectively. Besides, the EC90 with SARS-CoV-2 [1] (Severe acute respiratory syndrome coronavirus 2, HeLa-ACE2, Baseline response 0 %, Hill slope -0.659, Maximum measured 95.537 %, Maximum response 100 %, Minimum measured 29.329 %, R squared 0.973) is more than 20 µM; in the assay on SARS-CoV-2 [1] (Severe acute respiratory syndrome coronavirus 2, HeLa-ACE2, Baseline response 0 %, Hill slope -1.195, Maximum measured 100.014 %, Maximum response 100 %, Minimum measured 14.25 %, R squared 0.982), more than 20 µM; in the assay with SARS-CoV-2 [2] (Severe acute respiratory syndrome coronavirus 2, Pneumocyte, Baseline response 0 %, EC90 CI (lower) 1.051 uM, EC90 CI (upper) 45.178 uM, Hill slope -2.659, Maximum measured 160.084 %, Maximum response 100 %, Minimum measured 9.251 %, R squared 0.626) it was 36 µM.

For `CC(C)[C@@H](Nc1ncnc2[nH]c(-c3cnn(CC(N)=O)c3)cc12)c1ccc2c(n1)OCCO2`, the negative-log EC50 (pEC50) was less than 4.70 in the assay on SARS-CoV-2 [1] (setting [3]) and less than 4.30 in the assay on SARS-CoV-2 [2] (setting [4]). Also, the 90% effect concentration (EC90) was more than 20 µM with SARS-CoV-2 [1] (Severe acute respiratory syndrome coronavirus 2, HeLa-ACE2, Maximum measured 122.738 %, Minimum measured 101.22 %) and more than 50 µM with SARS-CoV-2 [2] (Severe acute respiratory syndrome coronavirus 2, Pneumocyte, Baseline response 0 %, Hill slope -0.097, Maximum measured 94.962 %, Maximum response 100 %, Minimum measured 56.467 %, R squared 0.078).

For `CNC(=O)Cn1cc(-c2cc3c(N[C@H](c4ccc5c(c4)S(=O)(=O)CCC5)C(C)C)ncnc3[nH]2)cn1`, the results for the pEC50 with SARS-CoV-2 [1] (setting [3]) and with SARS-CoV-2 [2] (setting [4]) were less than 4.70 and less than 4.30, respectively. Moreover, the EC90 with SARS-CoV-2 [1] (Severe acute respiratory syndrome coronavirus 2, HeLa-ACE2, Baseline response 0 %, Hill slope 0.543, Maximum measured 108.143 %, Maximum response 100 %, Minimum measured 92.194 %, R squared 0.052) was more than 20 µM; with SARS-CoV-2 [2] (Severe acute respiratory syndrome coronavirus 2, Pneumocyte, Baseline response 0 %, Hill slope -0.24, Maximum measured 106.027 %, Maximum response 100 %, Minimum measured 60.326 %, R squared 0.31), more than 50 µM.

With `CC(C)(C)[C@@H](Nc1ncnc2[nH]c(-c3cnn(CC(N)=O)c3)cc12)c1ccc2c(n1)OCCO2`, the results for the pEC50 with SARS-CoV-2 [1] (setting [3]) and in the assay on SARS-CoV-2 [2] (setting [4]) were less than 4.70 and 4.94, respectively. The EC90 in the assay with SARS-CoV-2 [1] (Severe acute respiratory syndrome coronavirus 2, HeLa-ACE2, Maximum measured 115.43 %, Minimum measured 93.464 %) was more than 20 µM; in the assay on SARS-CoV-2 [2] (Severe acute respiratory syndrome coronavirus 2, Pneumocyte, Baseline response 0 %, Hill slope -0.772, Maximum measured 91.919 %, Maximum response 100 %, Minimum measured 11.328 %, R squared 0.786), more than 50 µM.

Turning to `CC(C)[C@@H](Nc1ncnc2[nH]c(C(N)=O)cc12)c1ccc2c(c1)OCCO2`, the pEC50 in the assay on SARS-CoV-2 [1] (setting [3]) is less than 4.70; with SARS-CoV-2 [2] (setting [4]) it was less than 4.30. For the same compound, the EC90 in the assay on SARS-CoV-2 [1] (Severe acute respiratory syndrome coronavirus 2, HeLa-ACE2, Maximum measured 95.443 %, Minimum measured 3.395 %) was more than 20 µM; with SARS-CoV-2 [1] (Severe acute respiratory syndrome coronavirus 2, HeLa-ACE2, Maximum measured 108.483 %, Minimum measured 88.736 %), more than 20 µM; in the assay on SARS-CoV-2 [2] (Severe acute respiratory syndrome coronavirus 2, Pneumocyte, Baseline response 0 %, Hill slope -3.392, Maximum measured 162.718 %, Maximum response 100 %, Minimum measured 51.066 %, R squared 0.094) it was more than 50 µM.

Turning to `CC(C)[C@@H](Nc1ncnc2[nH]c(-c3cnn(C)c3C#N)cc12)c1ccc2c(c1)S(=O)(=O)CCC2`, the negative logarithm of the EC50 (pEC50) in the assay on SARS-CoV-2 [1] (setting [3]) is 5.45; in the assay on SARS-CoV-2 [2] (setting [4]), 6.39. The EC90 is 13.2 µM in the assay with SARS-CoV-2 [1] (Severe acute respiratory syndrome coronavirus 2, HeLa-ACE2, Baseline response 0 %, EC90 CI (lower) 0.517 uM, EC90 CI (upper) 1.693 uM, Hill slope -1.661, Maximum measured 114.163 %, Maximum response 100 %, Minimum measured 4.545 %, R squared 0.935) and 13 µM in the assay on SARS-CoV-2 [2] (Severe acute respiratory syndrome coronavirus 2, Pneumocyte, Baseline response 0 %, EC90 CI (lower) 0.002 uM, EC90 CI (upper) 0.075 uM, Hill slope -0.637, Maximum measured 75.192 %, Maximum response 100 %, Minimum measured 0.111 %, R squared 0.781).

Consider `CC(C)[C@@H](Nc1ncnc2[nH]c(-c3cnn(C)n3)cc12)c1ccc2c(c1)OCCO2`, for which the pEC50 was 5.27 with SARS-CoV-2 [1] (setting [3]), 5.18 with SARS-CoV-2 [1] (hela-ace2) and 4.88 in the assay on SARS-CoV-2 [2] (setting [4]). For the same compound, the EC90 with SARS-CoV-2 [1] (Severe acute respiratory syndrome coronavirus 2, HeLa-ACE2, Baseline response 0 %, Hill slope -0.7, Maximum measured 92.76 %, Maximum response 100 %, Minimum measured 27.109 %, R squared 0.91) is more than 20 µM; in the assay on SARS-CoV-2 [1] (Severe acute respiratory syndrome coronavirus 2, HeLa-ACE2, Baseline response 0 %, Hill slope -0.882, Maximum measured 101.658 %, Maximum response 100 %, Minimum measured 24.481 %, R squared 0.934), more than 20 µM; with SARS-CoV-2 [2] (Severe acute respiratory syndrome coronavirus 2, Pneumocyte, Baseline response 0 %, EC90 CI (lower) 0.166 uM, EC90 CI (upper) 294.285 uM, Hill slope -3.414, Maximum measured 157.709 %, Maximum response 100 %, Minimum measured 4.934 %, R squared 0.471) it was 25.3 µM.

Turning to `CC(C)[C@@H](Nc1ncnc2[nH]c(-c3cnn(CC(N)=O)c3)cc12)c1ccc2c(c1)OCCO2`, the pEC50 was less than 4.30 in the assay with SARS-CoV-2 [1] (setting [3]) and 4.43 in the assay with SARS-CoV-2 [2] (setting [4]). Besides, the 90% effect concentration (EC90) with SARS-CoV-2 [1] (Severe acute respiratory syndrome coronavirus 2, HeLa-ACE2, Baseline response 0 %, Hill slope -10.038, Maximum measured 122.799 %, Maximum response 100 %, Minimum measured 73.654 %, R squared 0.191) was more than 50 µM; with SARS-CoV-2 [2] (Severe acute respiratory syndrome coronavirus 2, Pneumocyte, Baseline response 0 %, Hill slope -4.011, Maximum measured 96.462 %, Maximum response 100 %, Minimum measured 23.083 %, R squared 0.242) it was more than 50 µM.

These data come from ChEMBL document CHEMBL5441381, “ASAP - In vitro antiviral effect” (2024).
